# Patent publication US20250282760A1 (Merck Sharp & Dohme LLC, priority 2022, published 2025)
# Target: T1, human OX2R (Homo sapiens, UniProt O43614)
# T1 construct: expressed in transfected cells; host or cells: Chinese hamster ovary (CHO) cells, kept under G418 selection
# T1 sequence (O43614 1-444): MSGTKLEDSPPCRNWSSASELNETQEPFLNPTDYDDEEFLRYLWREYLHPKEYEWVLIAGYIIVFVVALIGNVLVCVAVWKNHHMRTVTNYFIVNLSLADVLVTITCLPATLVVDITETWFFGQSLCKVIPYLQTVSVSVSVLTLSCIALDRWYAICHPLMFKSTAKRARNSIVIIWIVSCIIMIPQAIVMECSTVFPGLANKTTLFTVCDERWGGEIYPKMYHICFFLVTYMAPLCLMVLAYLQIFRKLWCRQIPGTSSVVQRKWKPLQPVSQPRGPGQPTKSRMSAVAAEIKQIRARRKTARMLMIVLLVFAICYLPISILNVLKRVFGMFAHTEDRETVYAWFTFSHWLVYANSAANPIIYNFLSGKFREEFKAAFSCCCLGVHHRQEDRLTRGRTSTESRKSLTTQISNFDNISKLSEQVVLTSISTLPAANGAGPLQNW
# Assay: IPOne (IP-1 accumulation) assay of orexin receptor agonist activity in CHO cells expressing human OX2R
# Type: cell-based
# Settings: for IC50: CHO cells expressing human OX2R, IP-One assay, 2 hours incubation, four parameter logistic fit, read-out: hOX2R_IP IC50; for Emax: CHO, percent activity at maximum tested concentration, relative to reference compound at 1 uM (100% activity) for human OX2R
# From the text: The utility of the compounds in accordance with the present invention as orexin receptor OX1R and/or OX2R agonists may be readily determined without undue experimentation by methodology well known in the art. Both the OX1R and/or OX2R G-coupled protein receptors (GPCRs) couple through the Gαq signaling pathway, which ultimately promotes calcium mobilization via inositol triphosphate (IP3) production. […] The utility of the compounds in accordance with the present invention as orexin receptor OX1R and/or OX2R agonists may be determined utilizing this assay.
# In a typical experiment, the OX1 and OX2 receptor agonist activity is determined in accordance with the following general experimental method. Chinese hamster ovary (CHO) cells expressing human OX1R and/or the human OX2R were grown in Iscove's modified DMEM containing glutaMAX™, 1% G418, 100 U/mL penicillin, 100 μg/mL streptomycin and 10% heat-inactivated qualified fetal bovine serum (FBS). […] During this incubation, IP-one detection reagents were prepared (38:1:1 lysis buffer:D2:AB-cryptate reagents).
# For each compound, data were fit to a four parameter logistic fit (ActivityBase software) and the EC50 was reported as the inflection point of the resulting curve. Percent effect for each test compound was determined as the percentage of sample raw value/mean max effect, where the mean max effect was derived from the mean raw value of 32 control wells per assay plate (using Orexin A (cat #003-30) at 1 μM for human OX1R and a reference compound at 1 uM with 100% activity previously established by comparison to Orexin A for human OX2R). The intrinsic orexin receptor agonist activity of a compound which may be used in the present invention may be determined by these assays.
SMILES,IC50,Emax
"CCOc1ccc(CNC(=O)[C@H]2CN(S(=O)(=O)c3ccccc3)C[C@@H](C)N2C(=O)C(C)C)cc1 (relative stereo) [Example 19-11, cis-N-(4-ethoxybenzyl)-1-isobutyryl-6-methyl-4-(phenylsulfonyl)piperazine-2-carboxamide]",264 nM,93.1%
"C[C@@H]1CN(S(=O)(=O)c2ccccc2)C[C@H](C(=O)NCc2ccc3ccccc3c2)N1C(=O)c1cccs1 (relative stereo) [Example 57, cis-6-methyl-N-(naphthalen-2-ylmethyl)-4-(phenylsulfonyl)-1-(thiophene-2-carbonyl)piperazine-2-carboxamide]",2540 nM,94.3%
"CC(C)C(=O)N1[C@H](C)CN(S(=O)(=O)c2ccccc2)C[C@@H]1C(=O)NCc1ccc(-c2ccccc2F)cc1 (relative stereo) [Example 21, cis-N-((2′-fluoro-[1,1′-biphenyl]-4-yl)methyl)-1-isobutyryl-6-methyl-4-(phenylsulfonyl)piperazine-2-carboxamide]",92.2 nM,90.7%
"CCC(C)C(=O)N1CCN(S(=O)(=O)c2ccccc2)CC1C(=O)NCc1ccc2ccccc2c1 (centres unmarked) [Example 10-1, 1-(2-methylbutanoyl)-N-(naphthalen-2-ylmethyl)-4-(phenylsulfonyl)piperazine-2-carboxamide]",4310 nM,101%
"Cc1ccccc1C(=O)N1CCN(S(=O)(=O)c2ccccc2)CC1C(=O)NCc1ccc2ccccc2c1 (centres unmarked) [Example 10-11, 1-(2-methylbenzoyl)-N-(naphthalen-2-ylmethyl)-4-(phenylsulfonyl)piperazine-2-carboxamide]",100000 nM,19.4%
"CC(C)C(=O)N1[C@H](C)CN(S(=O)(=O)c2ccccc2)C[C@@H]1C(=O)NCc1ccc(-n2cccn2)cc1 (relative stereo) [Example 19-9, cis-N-(4-(1H-pyrazol-1-yl)benzyl)-1-isobutyryl-6-methyl-4-(phenylsulfonyl)piperazine-2-carboxamide]",409 nM,99.2%
"CC(C)C(=O)N1[C@H](C)CN(S(=O)(=O)c2ccccc2)C[C@@H]1C(=O)NCc1ncc(-c2ccco2)cn1 (single isomer, unassigned) [Example 39]",6280 nM,97.8%
"CC(C)C(=O)N1CCN(S(=O)(=O)c2ccccc2)CC1C(=O)NCc1ccc2ccccc2c1 (centres unmarked) [Example 10-4, 1-isobutyryl-N-(naphthalen-2-ylmethyl)-4-(phenylsulfonyl)piperazine-2-carboxamide]",2610 nM,98.7%
"O=C(NCc1ccc2ccccc2c1)C1CN(S(=O)(=O)c2ccccc2)CCN1C(=O)C1CC1 (centres unmarked) [Example 10-5, 1-(cyclopropanecarbonyl)-N-(naphthalen-2-ylmethyl)-4-(phenylsulfonyl)piperazine-2-carboxamide]",8990 nM,98.7%
"O=C(NCc1ccc2ccccc2c1)C1CN(S(=O)(=O)c2ccccc2)CCN1C(=O)c1ccco1 (centres unmarked) [Example 10-9, 1-(furan-2-carbonyl)-N-(naphthalen-2-ylmethyl)-4-(phenylsulfonyl)piperazine-2-carboxamide]",6170 nM,93.8%
"CC(C)C(=O)N1[C@H](C)CN(S(=O)(=O)c2ccccc2)C[C@@H]1C(=O)NCc1ccc(OC(C)(F)F)cc1 (single isomer, unassigned) [Example 19-4-1]",22.7 nM,100%
"CC(C)C(=O)N1[C@@H](C(=O)NCc2ccc(-c3ccco3)cc2)CN(S(=O)(=O)c2ccccc2)C[C@H]1C(F)(F)F (relative stereo) [Example 78, cis-N-(4-(furan-2-yl)benzyl)-1-isobutyryl-4-(phenylsulfonyl)-6-(trifluoromethyl)piperazine-2-carboxamide]",2670 nM,97.1%
"Cc1c(CNC(=O)[C@H]2CN(S(=O)(=O)c3ccccc3)C[C@@H](C)N2C(=O)C(C)C)ccc(-c2ccco2)c1F (relative stereo) [Example 51, cis-N-(3-fluoro-4-(furan-2-yl)-2-methylbenzyl)-1-isobutyryl-6-methyl-4-(phenylsulfonyl)piperazine-2-carboxamide]",85.7 nM,99.8%
"CCCC(=O)N1CCN(S(=O)(=O)c2ccccc2)CC1C(=O)NCc1ccc2ccccc2c1 (centres unmarked) [Example 10-3, 1-butyryl-N-(naphthalen-2-ylmethyl)-4-(phenylsulfonyl)piperazine-2-carboxamide]",12200 nM,87.8%
"CC(C)C(=O)N1[C@H](C)CN(S(=O)(=O)c2ccccc2)C[C@@H]1C(=O)NCc1ccc(-c2ccco2)cn1 (relative stereo) [Example 23, cis-N-((5-(furan-2-yl)pyridin-2-yl)methyl)-1-isobutyryl-6-methyl-4-(phenylsulfonyl)piperazine-2-carboxamide]",108 nM,98.9%
"CC(=O)N1CCN(S(=O)(=O)c2ccccc2)CC1C(=O)NCc1ccc2ccccc2c1 (centres unmarked) [Example 11, 1-acetyl-N-(naphthalen-2-ylmethyl)-4-(phenylsulfonyl)piperazine-2-carboxamide]",34700 nM,81.6%
"CC(C)C(=O)N1[C@H](C)CN(S(=O)(=O)c2ccccc2)C[C@@H]1C(=O)NCc1ccc(-c2ncccn2)cc1 (relative stereo) [Example 19-5, cis-1-isobutyryl-6-methyl-4-(phenylsulfonyl)-N-(4-(pyrimidin-2-yl)benzyl)piperazine-2-carboxamide]",79.5 nM,101%

# Other lines, results leading:
IC50,Emax,SMILES
1010 nM,4.39%,"CC(C)C(=O)N1C(C)CN(S(=O)(=O)c2ccccc2)CC1C(=O)NCc1ccc(-c2ccncc2)cc1 (centres unmarked) [Example 42-3, 1-isobutyryl-6-methyl-4-(phenylsulfonyl)-N-(4-(pyridin-4-yl)benzyl)piperazine-2-carboxamide]"
2600 nM,99.7%,"COc1ccc(S(=O)(=O)N2CCN(C(=O)c3cccs3)C(C(=O)NCc3ccc4ccccc4c3)C2)cc1 (centres unmarked) [Example 89-7, 4-[(4-methoxyphenyl)sulfonyl]-N-[(naphthalen-2-yl)methyl]-1-(thiophene-2-carbonyl)piperazine-2-carboxamide]"
19200 nM,38.4%,"COc1cc(CNC(=O)[C@H]2CN(S(=O)(=O)c3ccccc3)C[C@@H](C)N2C(=O)C(C)C)ccc1-c1ccco1 (relative stereo) [Example 47-1, cis-N-(4-(furan-2-yl)-3-methoxybenzyl)-1-isobutyryl-6-methyl-4-(phenylsulfonyl)piperazine-2-carboxamide]"
27.9 nM,94.2%,"COc1cc(-c2ccco2)ccc1CNC(=O)[C@H]1CN(S(=O)(=O)c2ccccc2)C[C@@H](C)N1C(=O)C(C)C (relative stereo) [Example 47-4, cis-N-(4-(furan-2-yl)-2-methoxybenzyl)-1-isobutyryl-6-methyl-4-(phenylsulfonyl)piperazine-2-carboxamide]"
1010 nM,20.6%,"CC(C)C(=O)N1C(C)CN(S(=O)(=O)c2ccccc2)CC1C(=O)NCc1ccc(-c2cccnc2)cc1 (centres unmarked) [Example 42-2, 1-isobutyryl-6-methyl-4-(phenylsulfonyl)-N-(4-(pyridin-3-yl)benzyl)piperazine-2-carboxamide]"
100000 nM,23.1%,"N#Cc1ccc(S(=O)(=O)N2CCN(C(=O)c3cccs3)C(C(=O)NCc3ccc4ccccc4c3)C2)cc1 (centres unmarked) [Example 89-5, 4-[(4-cyanophenyl)sulfonyl]-N-[(naphthalen-2-yl)methyl]-1-(thiophene-2-carbonyl)piperazine-2-carboxamide]"
10.9 nM,99.5%,"CCc1cc(-c2ccco2)ccc1CNC(=O)[C@H]1CN(S(=O)(=O)c2ccccc2)C[C@@H](C)N1C(=O)C(C)C (relative stereo) [Example 47-6, cis-N-(2-ethyl-4-(furan-2-yl)benzyl)-1-isobutyryl-6-methyl-4-(phenylsulfonyl)piperazine-2-carboxamide]"
14.6 nM,106%,"Cc1cc(-c2ccco2)c(F)cc1CNC(=O)[C@@H]1CN(S(=O)(=O)c2ccccc2)C[C@H](C)N1C(=O)C(C)C (relative stereo) [Example 47-5, cis-N-(5-fluoro-4-(furan-2-yl)-2-methylbenzyl)-1-isobutyryl-6-methyl-4-(phenylsulfonyl) piperazine-2-carboxamide]"
